From PubChem BioAssay AID328 (DTP/NCI, 2004)
Values joined by “and” are separate entries in the source; they are usually repeats but may differ in a detail not shown here. Equal values may be shown once. Inconclusive results and toxic doses are left out.

Tested on: BDF1 mice, P388 leukemia ip, median survival T/C
Test: NCI In Vivo Anticancer Drug Screen. Data for tumor model P388 Leukemia (intraperitoneal) in B6D2F1 (BDF1) mice
Conditions: endpoint: median survival time, higher = longer survival
Summary of the method: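 T/C = treated-group survival ÷ vehicle-control survival; tumour transplanted into mice before dosing.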

[1] = dose: 0.25 mg/kg/injection, schedule: Q01DX009 (ip), vehicle: saline
[2] = dose: 0.5 mg/kg/injection, schedule: Q01DX009 (ip), vehicle: water
[3] = dose: 1.0 mg/kg/injection, schedule: Q01DX009 (ip), vehicle: water
[4] = dose: 2.0 mg/kg/injection, schedule: Q01DX009 (ip), vehicle: water
[5] = dose: 100.0 mg/kg/injection, schedule: Q01DX009 (ip), vehicle: saline with Tween-80
[6] = dose: 200.0 mg/kg/injection, schedule: Q01DX009 (ip), vehicle: saline with Tween-80

Compound: COC(=O)C[C@](O)(CCC(C)(C)O)C(=O)O[C@@H]1C(OC)=C[C@]23CCCN2CCc2cc4c(cc2[C@H]13)OCO4
- T/C (dose: 0.22 mg/kg/injection, schedule: Q01DX009 (ip), vehicle: saline): 190 % of control
- T/C [1]: 172 % of control and 209 % of control and 215 % of control
- T/C (dose: 0.25 mg/kg/injection, schedule: Q03HX016 (ip), vehicle: saline): 163 % of control
- T/C (dose: 0.25 mg/kg/injection, schedule: Q03HX024 (ip), vehicle: saline): 177 % of control
- T/C (dose: 0.33 mg/kg/injection, schedule: Q01DX009 (ip), vehicle: saline): 204 % of control
- T/C (dose: 0.5 mg/kg/injection, schedule: Q01DX006 (iv), vehicle: saline): 110 % of control
- T/C [2]: 261 % of control and 294 % of control
- T/C (dose: 0.5 mg/kg/injection, schedule: Q03HX008 (ip), vehicle: saline): 172 % of control
- T/C (dose: 0.5 mg/kg/injection, schedule: Q03HX016 (ip), vehicle: saline): 163 % of control
- T/C (dose: 0.5 mg/kg/injection, schedule: Q03HX024 (ip), vehicle: saline): 236 % of control
- T/C [3]: 350 % of control and 405 % of control
- T/C (dose: 1.0 mg/kg/injection, schedule: Q01DX009 (sc), vehicle: saline): 165 % of control
- T/C (dose: 1.0 mg/kg/injection, schedule: Q01DX010 (oral), vehicle: saline): 115 % of control
- T/C (dose: 1.0 mg/kg/injection, schedule: Q03HX016 (ip), vehicle: saline): 109 % of control
- T/C (dose: 1.0 mg/kg/injection, schedule: Q03HX024 (ip), vehicle: saline): 100 % of control
- T/C (dose: 2.0 mg/kg/injection, schedule: Q01DX006 (iv), vehicle: saline): 205 % of control
- T/C [4]: 205 % of control
- T/C (dose: 2.0 mg/kg/injection, schedule: Q01DX009 (oral), vehicle: saline): 210 % of control
- T/C (dose: 2.0 mg/kg/injection, schedule: Q01DX009 (sc), vehicle: saline): 215 % of control
- T/C (dose: 2.0 mg/kg/injection, schedule: Q01DX010 (oral), vehicle: saline): 160 % of control
- T/C (dose: 2.0 mg/kg/injection, schedule: Q01DX010 (sc), vehicle: saline): 235 % of control
- T/C (dose: 2.0 mg/kg/injection, schedule: Q04DX003 (ip), vehicle: saline): 154 % of control
- T/C (dose: 4.0 mg/kg/injection, schedule: Q01DX009 (ip), vehicle: saline): 150 % of control
- T/C (dose: 4.0 mg/kg/injection, schedule: Q01DX010 (sc), vehicle: saline): 100 % of control
- T/C (dose: 8.0 mg/kg/injection, schedule: Q01DX001 (ip), vehicle: saline): 118 % of control
- T/C (dose: 8.0 mg/kg/injection, schedule: Q01DX010 (oral), vehicle: saline): 90 % of control
- T/C (dose: 8.0 mg/kg/injection, schedule: Q04DX003 (ip), vehicle: saline): 104 % of control
- T/C (dose: 8.0 mg/kg/injection, schedule: Q08DX002 (ip), vehicle: saline): 100 % of control

Compound: O=C(COc1ccc(Cl)cc1)C1CSc2ccc3ccccc3c21 (stereo not given)
- T/C (dose: 100.0 mg/kg/injection, schedule: Q04DX003 (ip), vehicle: saline sonified): 95 % of control
- T/C (dose: 200.0 mg/kg/injection, schedule: Q04DX003 (ip), vehicle: saline sonified): 90 % of control
- T/C (dose: 400.0 mg/kg/injection, schedule: Q04DX003 (ip), vehicle: saline sonified): 95 % of control

Compound: CCC(=O)OCC(=O)[C@]1(O)Cc2c(O)c3c(c(O)c2[C@@H](OC2CC(N)C(O)C(C)O2)C1)C(=O)c1c(OC)cccc1C3=O (stereo not given in full)
- T/C (dose: 0.12 mg/kg/injection, schedule: Q01DX009 (ip), vehicle: saline): 170 % of control
- T/C [1]: 201 % of control
- T/C (dose: 0.5 mg/kg/injection, schedule: Q01DX009 (ip), vehicle: saline): 219 % of control
- T/C (dose: 1.0 mg/kg/injection, schedule: Q01DX009 (ip), vehicle: saline): 186 % of control
- T/C (dose: 2.0 mg/kg/injection, schedule: Q01DX009 (ip), vehicle: saline): 241 % of control
- T/C (dose: 7.5 micrograms/kg/injection, schedule: Q01DX009 (ip), vehicle: saline): 102 % of control
- T/C (dose: 15.0 micrograms/kg/injection, schedule: Q01DX009 (ip), vehicle: saline): 107 % of control
- T/C (dose: 30.0 micrograms/kg/injection, schedule: Q01DX009 (ip), vehicle: saline): 118 % of control
- T/C (dose: 60.0 micrograms/kg/injection, schedule: Q01DX009 (ip), vehicle: saline): 170 % of control

Compound: C=CCCCCCCCCC(=O)NCc1nc2ccccc2[nH]1
- T/C [5]: 100 % of control
- T/C [6]: 109 % of control
- T/C (dose: 400.0 mg/kg/injection, schedule: Q01DX009 (ip), vehicle: saline with Tween-80): 95 % of control

Compound: CN(Cc1cnc2nc(N)nc(N)c2n1)c1c(Cl)cc(C(=O)NC(CCC(=O)O)C(=O)O)cc1Br (stereo not given)
- T/C (dose: 0.13 mg/kg/injection, schedule: Q04DX003 (ip), vehicle: saline): 108 % of control
- T/C (dose: 0.19 mg/kg/injection, schedule: Q04DX003 (ip), vehicle: saline): 116 % of control
- T/C (dose: 1.1 mg/kg/injection, schedule: Q04DX003 (ip), vehicle: saline): 150 % of control
- T/C (dose: 6.3 mg/kg/injection, schedule: Q04DX003 (ip), vehicle: saline): 150 % of control
- T/C (dose: 25.0 mg/kg/injection, schedule: Q01DX009 (ip), vehicle: saline): 213 % of control
- T/C (dose: 50.0 mg/kg/injection, schedule: Q01DX009 (ip), vehicle: saline): 261 % of control
- T/C [5]: 173 % of control
- T/C (dose: 100.0 mg/kg/injection, schedule: Q01DX009 (ip), vehicle: saline): 271 % of control
- T/C (dose: 115.0 mg/kg/injection, schedule: Q04DX003 (ip), vehicle: saline): 236 % of control
- T/C (dose: 175.0 mg/kg/injection, schedule: Q04DX003 (ip), vehicle: saline): 272 % of control
- T/C [6]: 182 % of control
- T/C (dose: 264.0 mg/kg/injection, schedule: Q04DX003 (ip), vehicle: saline): 254 % of control
- T/C (dose: 400.0 mg/kg/injection, schedule: Q04DX003 (ip), vehicle: saline): 272 % of control
- T/C (dose: 600.0 mg/kg/injection, schedule: Q04DX003 (ip), vehicle: saline): 90 % of control

Compound: Cc1ccc(S(=O)(=O)N2CCC(C(=O)O)(c3ccccc3)CC2)cc1
- T/C (dose: 100.0 mg/kg/injection, schedule: Q04DX003 (ip), vehicle: saline with Tween-80): 100 % of control
- T/C (dose: 200.0 mg/kg/injection, schedule: Q04DX003 (ip), vehicle: saline with Tween-80): 95 % of control
- T/C (dose: 400.0 mg/kg/injection, schedule: Q04DX003 (ip), vehicle: saline with Tween-80): 95 % of control

Compound: O=C1C(N2CCOCC2)=C(N2CC2)C(=O)C(N2CCOCC2)=C1N1CC1
- T/C (dose: 1.5 mg/kg/injection, schedule: Q01DX009 (ip), vehicle: saline): 105 % of control
- T/C (dose: 3.0 mg/kg/injection, schedule: Q01DX009 (ip), vehicle: saline): 94 % of control
- T/C (dose: 6.0 mg/kg/injection, schedule: Q01DX009 (ip), vehicle: saline): 94 % of control

Compound: CCC1CC2CC(c3cc4c(cc3OC)N(C)C3C(O)(C(=O)OC)C(OC(C)=O)C5(CC)C=CCN6CCC43C65)c3[nH]c4ccccc4c3CCN(C1)C2 (stereo not given)
- T/C (dose: 0.03 mg/kg/injection, schedule: Q01DX009 (ip), vehicle: water): 181 % of control
- T/C (dose: 0.06 mg/kg/injection, schedule: Q01DX009 (ip), vehicle: water): 100 % of control
- T/C (dose: 0.12 mg/kg/injection, schedule: Q01DX009 (ip), vehicle: water): 100 % of control
- T/C (dose: 0.25 mg/kg/injection, schedule: Q01DX009 (ip), vehicle: water): 90 % of control and 95 % of control
- T/C (dose: 0.25 mg/kg/injection, schedule: Q04DX003 (ip), vehicle: water): 90 % of control
- T/C [2]: 100 % of control and 104 % of control
- T/C (dose: 0.5 mg/kg/injection, schedule: Q04DX003 (ip), vehicle: water): 95 % of control
- T/C [3]: 109 % of control
- T/C (dose: 1.0 mg/kg/injection, schedule: Q04DX003 (ip), vehicle: water): 95 % of control
- T/C [4]: 104 % of control
- T/C (dose: 4.0 mg/kg/injection, schedule: Q04DX003 (ip), vehicle: water): 95 % of control
- T/C (dose: 6.0 mg/kg/injection, schedule: Q04DX003 (ip), vehicle: water): 90 % of control
- T/C (dose: 5.0 micrograms/kg/injection, schedule: Q01DX009 (ip), vehicle: water): 104 % of control
- T/C (dose: 10.0 micrograms/kg/injection, schedule: Q01DX009 (ip), vehicle: water): 102 % of control
- T/C (dose: 20.0 micrograms/kg/injection, schedule: Q01DX009 (ip), vehicle: water): 90 % of control
- T/C (dose: 40.0 micrograms/kg/injection, schedule: Q01DX009 (ip), vehicle: water): 100 % of control
- T/C (dose: 80.0 micrograms/kg/injection, schedule: Q01DX009 (ip), vehicle: water): 92 % of control
